Data: US12398107B2, “Fungicidal nitroanilino substituted pyrazoles” (FMC Corporation, priority 2018, dated 2025)

Legend:
Assay type in all cases: in vivo
[1] = system: Septoria tritici; assay: Test A: wheat leaf blotch, preventive spray on wheat seedlings; conditions: 100 = 100% disease control, 0 = no control relative to controls; for Test A disease control rating (wheat leaf blotch) / pest or weed control at 50 ppm: 50 ppm
In short: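 Preventive test: seedlings sprayed to run-off one day before Septoria tritici spore inoculation, with ppm doses in acetone/water containing 250 ppm PEG400. After 48 h at 24 °C in saturated air and 17 days at 20 °C, plants were scored 0–100 for disease control versus untreated controls.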

[2] = system: Puccinia recondita f. sp. tritici; assay: Test B: wheat leaf rust, preventive spray on wheat seedlings; conditions: 100 = 100% disease control, 0 = no control relative to controls; for Test B disease control rating (wheat leaf rust) / pest or weed control at 50 ppm: 50 ppm
In short: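 Wheat seedlings got a run-off spray (ppm, acetone/water 50/50, 250 ppm PEG400) and one day later a spore inoculum. After 24 h at 20° C. in saturated air and 7 days at 20° C., disease was scored as % control relative to controls (100 = full control).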

[3] = system: Blumeria graminis f. sp. tritici; assay: Test C: wheat powdery mildew, preventive spray on wheat seedlings; conditions: rated after 8 days, 100 = 100% disease control, 0 = no control; for Test C disease control rating (wheat powdery mildew) / pest or weed control at 50 ppm: 50 ppm
In short: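 Wheat seedlings got a run-off spray of test suspension (ppm in acetone/water 50/50, 250 ppm PEG400, acetone 3% of volume), then spore-dust inoculation with wheat powdery mildew one day later. After 8 days' growth-chamber incubation at 20° C, disease control scored visually on a 0–100 scale versus untreated controls.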

[4] = system: Phakopsora pachyrhizi; assay: Test D: Asian soybean rust, preventive spray on soybean seedlings; conditions: 100 = 100% disease control, 0 = no control; for Test D disease control rating (Asian soybean rust) / pest or weed control at 50 ppm: 50 ppm
In short: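 Soybean seedlings sprayed to run-off with compound suspension (ppm, in 50/50 acetone/water with 250 ppm PEG400), inoculated next day with P. pachyrhizi spores, held 24 h saturated at 22°C then 8 days at 22°C. Visual rating 0-100% disease control relative to controls.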

[5] = system: Botrytis cinerea; assay: Test E: tomato Botrytis, preventive spray on tomato seedlings; conditions: 100 = 100% disease control, 0 = no control; for Test E disease control rating (tomato Botrytis) / pest or weed control at 50 ppm: 50 ppm
In short: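 Preventive test: spore inoculation one day after run-off spraying of compound suspension (3% acetone, acetone/water 50/50, 250 ppm PEG400). Incubation 20 °C saturated humidity for 48 h, followed by 3 days at 24 °C growth chamber; disease control scored visually, 100 = full control.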

[6] = system: Alternaria solani; assay: Test F: tomato early blight, preventive spray on tomato seedlings; conditions: 100 = 100% disease control, 0 = no control; for Test F disease control rating (tomato early blight) / pest or weed control at 50 ppm: 50 ppm
In short: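 Preventive test: one day after seedlings were sprayed to run-off with ppm-level suspensions (acetone/water 50/50, 250 ppm PEG400), A. solani spore inoculation followed. Incubation was 48 h at 27° C in saturated air plus 3 days at 20° C; disease control was scored visually versus controls (100 = full control).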

[7] = Zymoseptoria tritici, read-out: Test A disease control rating (wheat leaf blotch)
[8] = read-out: Test B disease control rating (wheat leaf rust)
[9] = Blumeria graminis, 192 h, read-out: Test C disease control rating (wheat powdery mildew)
[10] = Phakopsora pachyrhizi, read-out: Test D disease control rating (Asian soybean rust)
[11] = Botrytis cinerea, read-out: Test E disease control rating (tomato Botrytis)
[12] = Alternaria solani, read-out: Test F disease control rating (tomato early blight)

| Structure (SMILES) | Test A disease control rating (wheat leaf blotch) [1] [%] | Test B disease control rating (wheat leaf rust) [2] [%] | Test C disease control rating (wheat powdery mildew) [3] [%] | Test D disease control rating (Asian soybean rust) [4] [%] | Test E disease control rating (tomato Botrytis) [5] [%] | Test F disease control rating (tomato early blight) [6] [%] | pest or weed control at 10 ppm ([1]; Zymoseptoria tritici, 10 ppm, read-out: Test A disease control rating (wheat leaf blotch)) [%] | pest or weed control at 50 ppm [1, 7] [%] | pest or weed control at 10 ppm ([2]; 10 ppm, read-out: Test B disease control rating (wheat leaf rust)) [%] | pest or weed control at 50 ppm [2, 8] [%] | pest or weed control at 10 ppm ([3]; Blumeria graminis, 192 h, 10 ppm, read-out: Test C disease control rating (wheat powdery mildew)) [%] | pest or weed control at 50 ppm [3, 9] [%] | pest or weed control at 10 ppm ([4]; Phakopsora pachyrhizi, 10 ppm, read-out: Test D disease control rating (Asian soybean rust)) [%] | pest or weed control at 50 ppm [4, 10] [%] | pest or weed control at 10 ppm ([5]; Botrytis cinerea, 10 ppm, read-out: Test E disease control rating (tomato Botrytis)) [%] | pest or weed control at 50 ppm [5, 11] [%] | pest or weed control at 10 ppm ([6]; Alternaria solani, 10 ppm, read-out: Test F disease control rating (tomato early blight)) [%] | pest or weed control at 50 ppm [6, 12] [%] |
| --- | --- | --- | --- | --- | --- | --- | --- | --- | --- | --- | --- | --- | --- | --- | --- | --- | --- | --- |
| COc1cc(F)c(-c2c(C)nn(C)c2Nc2ccc(F)cc2[N+](=O)[O-])c(F)c1 [Compound 83] | 99 | 91 | 99 | 0 | 98 | 99 |  |  |  |  |  |  |  |  |  |  |  |  |
| Cc1cccc([N+](=O)[O-])c1Nc1c(-c2c(F)cc(F)cc2Br)c(C)nn1C [Compound 169] | 100 | 100 | 100 | 0 | 98 | 0 |  |  |  |  |  |  |  |  |  |  |  |  |
| Cc1nn(C)c(Nc2ccccc2[N+](=O)[O-])c1-c1c(F)cc(F)cc1Br [Compound 154] | 99 | 80 | 98 | 0 | 99 | 51 |  |  |  |  |  |  |  |  |  |  |  |  |
| Cc1nn(C)c(Nc2c(F)cccc2[N+](=O)[O-])c1-c1ccc(F)cc1Br [Compound 60, 4-(2-bromo-4-fluorophenyl)-N-(2-fluoro-6-nitrophenyl)-1,3-dimethyl-1H-pyrazol-5-amine] |  |  |  |  |  |  | 99 | 100 | 100 | 100 | 85 | 100 | 0 | 97 | 99 | 99 | 75 | 99 |
| Cc1cccc([N+](=O)[O-])c1Nc1c(-c2ccc(F)cc2Br)c(C)nn1C [Compound 42] | 100 | 100 | 96 | 0 | 91 | 0 |  |  |  |  |  |  |  |  |  |  |  |  |
| Cc1nn(C)c(Nc2c(F)cc(Br)cc2[N+](=O)[O-])c1-c1ccc(F)cc1Cl [Compound 61, N-(4-bromo-2-fluoro-6-nitrophenyl)-4-(2-chloro-4-fluorophenyl)-1,3-dimethyl-1H-pyrazol-5-amine] |  |  |  |  |  |  |  | 100 |  | 100 |  | 99 |  | 84 |  | 99 |  | 99 |
| Cc1nn(C)c(Nc2c(F)cc(Cl)cc2[N+](=O)[O-])c1-c1ccc(C#N)cc1Cl [Compound 115] | 100 | 100 | 94 | 77 | 99 | 99 |  |  |  |  |  |  |  |  |  |  |  |  |
| COc1cc(F)c(-c2c(C)nn(C)c2Nc2c(F)cccc2[N+](=O)[O-])c(F)c1 [Compound 70] | 100 | 100 | 99 | 84 | 99 | 99 |  |  |  |  |  |  |  |  |  |  |  |  |
| COc1cc(F)c(Nc2c(-c3c(F)cccc3Cl)c(C)nn2C)c([N+](=O)[O-])c1 [Compound 23, 4-(2-chloro-6-fluorophenyl)-N-(2-fluoro-4-methoxy-6-nitrophenyl)-1,3-dimethyl-1H-pyrazol-5-amine] |  |  |  |  |  |  |  | 100 |  | 100 |  | 100 |  | 99 |  | 97 |  | 99 |
| Cc1nn(C)c(Nc2c([N+](=O)[O-])ccc(F)c2F)c1-c1ccc(F)cc1Cl [Compound 7] | 100 | 99 | 94 | 96 | 99 | 89 |  |  |  |  |  |  |  |  |  |  |  |  |
| Cc1nn(C)c(Nc2c(Cl)cc(F)cc2[N+](=O)[O-])c1-c1ccc(F)cc1Br [Compound 43] | 100 | 100 | 97 | 65 | 96 | 64 |  |  |  |  |  |  |  |  |  |  |  |  |
| Cc1cc(Cl)c(Nc2c(-c3c(F)cccc3F)c(C)nn2C)c([N+](=O)[O-])c1 [Compound 100] | 100 | 89 | 21 | 0 | 26 | 0 |  |  |  |  |  |  |  |  |  |  |  |  |
| COc1cc(F)c(-c2c(C)nn(C)c2Nc2c(Cl)cc(Cl)cc2[N+](=O)[O-])c(F)c1 [Compound 82] | 100 | 100 | 58 | 59 | 96 | 97 |  |  |  |  |  |  |  |  |  |  |  |  |
| COc1ccc(-c2c(C)nn(C)c2Nc2c(Cl)cccc2[N+](=O)[O-])c(C)c1 [Compound 35] | 99 | 85 | 0 | 0 | 0 | 0 |  |  |  |  |  |  |  |  |  |  |  |  |
| Cc1cccc([N+](=O)[O-])c1Nc1c(-c2ccc(C#N)cc2Cl)c(C)nn1C [Compound 157] | 100 | 97 | 76 | 0 | 9 | 0 |  |  |  |  |  |  |  |  |  |  |  |  |
| Cc1nn(C)c(Nc2c(F)cc(I)cc2[N+](=O)[O-])c1-c1ccc(F)cc1Cl [Compound 47] | 100 | 97 | 89 | 92 | 95 | 96 |  |  |  |  |  |  |  |  |  |  |  |  |
| Cc1nn(C)c(Nc2c(Cl)cc(F)cc2[N+](=O)[O-])c1-c1c(F)cccc1Cl [Compound 49] | 100 | 100 | 95 | 25 | 94 | 26 |  |  |  |  |  |  |  |  |  |  |  |  |
| Cc1nn(C)c(Nc2c(F)cccc2[N+](=O)[O-])c1-c1c(F)cc(C#N)cc1F [Compound 114] | 100 | 98 | 99 | 73 | 100 | 99 |  |  |  |  |  |  |  |  |  |  |  |  |
